Reference: US20040009904A1, “APL immunoreactive peptides, conjugates thereof and methods of treatment for aPL antibody-mediated pathologies” (priority 1995, published 2004)
Bridge positions count the residues as written; N and C are the ends. Peptide text beside a SMILES is read from it.

What was measured:
[1] = target: ACA-6501 aPL antibody; assay: Competitive binding peptide-ELISA, plates coated with tetravalent peptide ACA-6501/3B10; design: species or system human; settings: monomeric peptide, ACA-6501 serum
From the text: Once ELISA-positive peptides are identified, it is necessary to quantitate their relative binding affinity to the aPL antibodies and to determine whether or not two peptides bind the same population of antibodies in a given patient serum via a peptide-competition ELISA assay. In this assay, various monomeric peptides compete with tetravalent peptides coated on a microtitration plate well. To perform the assay, the peptides to be evaluated are synthesized as monomers, ie., without the lysine branches employed in the synthesis of the tetravalent peptides, using standard Fmoc chemistry. The monomeric peptides are then purified and dissolved at known concentrations. Wells of a microtitration plate are coated with a tetravalent peptide known to bind to the aPL antibody. Serial dilutions of the monomeric peptides are incubated with a constant dilution of the aPL antibody. The dilution of the aPL antibody was previously determined by titering the antibody against the tetravalent peptide and selecting a dilution on the downslope of the titration curve. After incubating the antibody and monomeric peptides for one hour, the antibody/peptide solutions are added to the microtitration wells and a standard […] ELISA is performed. The concentration of each monomeric peptide that decreases binding of the aPL antibody with the tetravalent peptide is determined by plotting the calorimetric readings obtained for each well. The 50% inhibition point is used as the measure of the relative strength of binding for the monomeric peptides.
(A) Each well of an Immulon II plate (Dynatech Laboratories, Inc., Chantilly Va.) was coated with 100 μL of a solution containing 10 μg tetravalent peptide ACA 6501/3B10 in 50 mM sodium carbonate, pH 9.5, containing 35 mM sodium bicarbonate (Fisher Scientific, Pittsburgh, Pa., reagent grade) for at least 1 hour at RT, except for three wells used as blank controls. […]

[2] = system: ACA-6501; assay: Phage-ELISA; assay type: binding, human; settings: phage clones coated on wells, affACA-6501 2.5 μg/mL
Protocol: This method of selecting phage requires very tight binding of the insert to the screening antibody. Phage are directly coated onto wells of a microtitration plate and incubated with the screening antibody. Following washes to remove unbound antibody, an anti-human IgG alkaline phosphatase conjugate is added to bind any aPL antibodies bound to the phage. APL antibodies are then detected by adding a calorimetric substrate to the well which will react with alkaline phosphatase according to methods well known in the art.
Three mL cultures were prepared from 35 clones previously isolated with affinity purified ACA-6501 in several phage library screens as well as one fUSE 2 phage clone lacking a peptide insert which was used as a control. After centrifugation for 3 minutes at 17,000×g, 100 μL from each phage supernatant (adjusted to −2×10^11 particles/mL, based on absorbance) was added to microtitration plate wells (Falcon, Becton-Dickinson Labware, Lincoln Park, N.Y.) and allowed to incubate overnight at 4° C. Following four washes with TBS 7.4, the plate was blocked with 125 μL of 0.5% BSA/TBS for 1 hour at RT. After another four TBS washes, 100 μL of affACA-6501 previously diluted to 2.5 μg/mL in TBS/BSA was added to each well and allowed to incubate 1 hour at 37° C. Following an additional four washes, 100 μL anti-human IgG diluted 1:1000 in TBS/0.5% Tween was added to each well. After 1 hour at RT, enzyme substrate was added and the incubation allowed to proceed for 2 hours. Following the addition of 50 μL 0.2 M Na2HPO4 to stop the reaction, absorbance was measured at 550 nm in the automated plate absorbance reader. […] The sequences for these clones are showvn in Table 2.

[3] = system: ACA-6501; assay: Competitive binding peptide ACA ELISA, cardiolipin/β2-GPI-coated plates; design: species or system human; settings: affinity purified antibody
Method in brief: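 Monomeric peptides at several amounts were preincubated ~1 h at RT with ACA-6501 serum (final 1:400), then added to cardiolipin-coated, fish-gelatin-blocked plates with β2-GPI for 1 h at RT. Bound IgG was detected with alkaline phosphatase anti-human IgG and phenolphthalein monophosphate, read at 550 nm. IC50 was the peptide amount at half-maximal absorbance.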

[4] = system: ACA-6626; assay: as above; design: species or system human; settings: affinity purified antibody
Protocol: (§1) A variation of this assay uses microtitration plates coated with human β2-glycoprotein I/cardiolipin (β2-GPI/CL) instead of tetravalent peptide and tests the ability of monomeric peptides to block the binding of aPL antibody to the epitope(s) on β2-GPI/CL. In this assay, IgG-depleted human serum at an optimized concentration is used as a source of β2-GPI. The monomeric peptides at several concentrations are incubated with an optimized concentration of aPL antibody in a manner analogous to the assay which employs tetravalent peptide as a plate substrate. Following the incubation of aPL/peptide in (β2-GPI/CL) plates, antibody binding and the peptide concentration required for 50% inhibition is determined at half-maximal absorbance as in the tetravalent assay.
(§2) Peptide sequences for all five peptides immediately follow the table. All were tested using the competitive binding peptide ACA ELISA using CL/β2-GPI plates as described herein.
(§3) (B) Immulon I® 96-well, flat-bottom, polystyrene microtitration plates (Dynatech Laboratories, Inc., Chantilly, Va.) were coated with 30 μL/well of cardiolipin (CL, 50 μg; Sigma Chemical Co., St. Louis, Mo.) in ethanol. Two control wells received 30 μL ethanol only. After overnight evaporation at 4° C., each well was blocked with 200 μL of 5% (w/v) fish gelatin in PBS for 2 hours at RT.
(§4) The CL/β2-GPI microtitration plate was washed 5 times with TBS and 100 μL aliquots in duplicate from Eppendorf tubes #1, 2, 3, and 4 containing the antibody-peptide (or no peptide mixtures) were added to the wells. A volume of 100 μL from tube #4 was added to the duplicate control wells containing no cardiolipin. The microtitration plate was incubated for 1 hour at RT with agitation at 40 rpm in an orbital shaker (American Scientific, Rotator V), washed 5 times with TBS and then 100 μL of 1:1000 goat anti-human IgG alkaline phosphatase conjugate (Zymed, Cat No. 62-8422) in 0.5% (w/v) BSA-TBS was added. Following incubation for 1 hour at RT, the microtitration plate was again washed 5 times with TBS and the colorimetric enzyme detection developed by adding 100 μL of PMPP solution (7.8 g phenolphthalein monophosphate plus 69.5 g of 2-amino-2-methyl-1-propanol in 100 mL water stock solution diluted 1:26 with water). After 21 minutes, the reaction was stopped by adding 50 μL of 0.2 M Na2HPO4 (Mallinckrodt) to each well. Absorbance at 550 nm was read in a microplate reader (Bio-Tek Instruments, Model EL 311). The amount of peptide that inhibited ACA-6501 binding by 50%, the IC50, was calculated from the graph at the intersection of half-maximal absorbance with amount of peptide added.

[5] = system: ACA-6638; assay: as above; design: species or system human; settings: affinity purified antibody
Protocol: as §1, §2, §3, §4

[6] = system: ACA-6641; assay: as above; design: species or system human; settings: affinity purified antibody
Protocol: as §1, §2, §3, §4

[7] = system: ACA-6644; assay: as above; design: species or system human; settings: affinity purified antibody
Protocol: as §1, §2, §3, §4

[8] = system: ACA-6701; assay: as above; design: species or system human; settings: affinity purified antibody
Protocol: as §1, §2, §3, §4

[9] = system: ACA-6903; assay: as above; design: species or system human; settings: affinity purified antibody
Protocol: as §1, §2, §3, §4

[10] = system: ACA-7004; assay: as above; design: species or system human; settings: affinity purified antibody
Protocol: as §1, §2, §3, §4

[11] = system: ACA-7005; assay: as above; design: species or system human; settings: affinity purified antibody
Protocol: as §1, §2, §3, §4

[12] = system: ACA antibodies; assay: Competitive binding peptide ACA ELISA, cardiolipin/β2-GPI-coated plates, panel of ACA antibodies (average); design: species or system human; settings: average over nine antibodies
Protocol: as §1, §2
As noted in Section I above, one synthetic peptide, 6641/3G3 was tested against several high titer ACA antisera. This peptide appeared to be crossreactive with the vast majority of ACA antisera tested as illustrated in FIG. 14.
as §3, §4

Compound: CC(C)C[C@@H]1NC(=O)[C@H](CC(C)C)NC(=O)[C@H](CC(C)C)NC(=O)[C@@H](NC(=O)[C@@H]2CCCN2)CSSC[C@@H](C(=O)N2CCC[C@H]2C(=O)NCC(=O)O)NC(=O)[C@H](CCCNC(=N)N)NC(=O)[C@H](CC(=O)O)NC(=O)[C@@H]2CCCN2C(=O)[C@H](C)NC1=O [peptide 139] (H-PCLLLAPDRCPG-OH; disulfide 2-10)
- amount of peptide producing 50% inhibition of binding of ACA-6501 aPL antibody to tetravalent peptide ACA-6501/3B10 [1]: 6.9 µg

Compound: CLVLALDRC [3B6, ACA-6501 phage clone insert]
- signal in the phage-ELISA [2]: significant signals

Compound: GILALDYV GG (GILALDYVGG) [6644/CBf]
- Percent Inhibition of AffACA by Peptide Monomers, 6501 ([3]; peptide 200 μg/mL): 37%
- Percent Inhibition of AffACA by Peptide Monomers, 6626 ([4]; peptide 200 μg/mL): 37%
- Percent Inhibition of AffACA by Peptide Monomers, 6638 ([5]; peptide 200 μg/mL): 60%
- Percent Inhibition of AffACA by Peptide Monomers, 6641 ([6]; peptide 200 μg/mL): 28%
- Percent Inhibition of AffACA by Peptide Monomers, 6644 ([7]; peptide 200 μg/mL): 18%
- Percent Inhibition of AffACA by Peptide Monomers, 6701 ([8]; peptide 200 μg/mL): 22%
- Percent Inhibition of AffACA by Peptide Monomers, 6903 ([9]; peptide 200 μg/mL): 43%
- Percent Inhibition of AffACA by Peptide Monomers, 7004 ([10]; peptide 200 μg/mL): 54%
- Percent Inhibition of AffACA by Peptide Monomers, 7005 ([11]; peptide 200 μg/mL): 57%
- Percent Inhibition of AffACA by Peptide Monomers, Ave. ([12]; peptide 200 μg/mL): 39%

Compound: CC(C)C[C@@H]1NC(=O)[C@H](CC(C)C)NC(=O)[C@H](CC(C)C)NC(=O)[C@@H](NC(=O)[C@@H]2CCCN2C(=O)CN)CSSC[C@@H](C(=O)N2CCC[C@H]2C(=O)NCC(=O)O)NC(=O)[C@H](CCCNC(=N)N)NC(=O)[C@H](CC(=O)O)NC(=O)[C@@H]2CCCN2C(=O)[C@H](C)NC1=O [peptide 142] (H-GPCLLLAPDRCPG-OH; disulfide 3-11)
- amount of peptide producing 50% inhibition of binding of ACA-6501 aPL antibody to tetravalent peptide ACA-6501/3B10 [1]: 0.7 µg

Compound: AGP DGNIADPRC PG (DGNIADPRCPG) [6626/4C7]
- Percent Inhibition of AffACA by Peptide Monomers, 6501 ([3]; peptide 1 mg/mL): 39%
- Percent Inhibition of AffACA by Peptide Monomers, 6626 ([4]; peptide 1 mg/mL): 88%
- Percent Inhibition of AffACA by Peptide Monomers, 6638 ([5]; peptide 1 mg/mL): 96%
- Percent Inhibition of AffACA by Peptide Monomers, 6641 ([6]; peptide 1 mg/mL): 45%
- Percent Inhibition of AffACA by Peptide Monomers, 6644 ([7]; peptide 1 mg/mL): 45%
- Percent Inhibition of AffACA by Peptide Monomers, 6701 ([8]; peptide 1 mg/mL): 69%
- Percent Inhibition of AffACA by Peptide Monomers, 6903 ([9]; peptide 1 mg/mL): 77%
- Percent Inhibition of AffACA by Peptide Monomers, 7004 ([10]; peptide 1 mg/mL): 99%
- Percent Inhibition of AffACA by Peptide Monomers, 7005 ([11]; peptide 1 mg/mL): 54%
- Percent Inhibition of AffACA by Peptide Monomers, Ave. ([12]; peptide 1 mg/mL): 68%

Compound: CILLAHDRC [3E7, ACA-6501 phage clone insert]
- signal in the phage-ELISA [2]: significant signals

Compound: AGP LSDPGYVRNIFH PG (LSDPGYVRNIFHPG) [6701/3B1]
- Percent Inhibition of AffACA by Peptide Monomers, 6501 ([3]; peptide 1 mg/mL): 41%
- Percent Inhibition of AffACA by Peptide Monomers, 6626 ([4]; peptide 1 mg/mL): 43%
- Percent Inhibition of AffACA by Peptide Monomers, 6638 ([5]; peptide 1 mg/mL): 65%
- Percent Inhibition of AffACA by Peptide Monomers, 6641 ([6]; peptide 1 mg/mL): 43%
- Percent Inhibition of AffACA by Peptide Monomers, 6644 ([7]; peptide 1 mg/mL): 37%
- Percent Inhibition of AffACA by Peptide Monomers, 6701 ([8]; peptide 1 mg/mL): 96%
- Percent Inhibition of AffACA by Peptide Monomers, 6903 ([9]; peptide 1 mg/mL): 51%
- Percent Inhibition of AffACA by Peptide Monomers, 7004 ([10]; peptide 1 mg/mL): 72%
- Percent Inhibition of AffACA by Peptide Monomers, 7005 ([11]; peptide 1 mg/mL): 23%
- Percent Inhibition of AffACA by Peptide Monomers, Ave. ([12]; peptide 1 mg/mL): 52%

Compound: CTILTLDRC [2H2, ACA-6501 phage clone insert]
- signal in the phage-ELISA [2]: significant signals
